# Test results as given in patent US10052306B2 (LUC THERAPEUTICS, INC., priority 2013, dated 2018).
# Molecular target: NR1/NR2B (Homo sapiens (Human), UniProt Q05586+Q13224)
# Test: Cell assay: FDSS Ca2+ influx inhibition in HEK293 cells expressing NR1/NR2B;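 also: Fluo-8 Ca2+ signal read on Hamamatsu FDSS 6000 after glutamate, glycine and Ca2+ challenge following 10 min compound preincubation, end/baseline fluorescence ratio compared with MK801 control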
# Conditions: Ca2+ influx
# [1] = Binned Activity, HEK293 cells expressing NR1/NR2B, binned NR2B NAM IC50
# [2] = NR2B NAM IC50, HEK293 cells expressing NR1/NR2B
# Sequence of NR1/NR2B (Q13224 27-1484, other chains not shown): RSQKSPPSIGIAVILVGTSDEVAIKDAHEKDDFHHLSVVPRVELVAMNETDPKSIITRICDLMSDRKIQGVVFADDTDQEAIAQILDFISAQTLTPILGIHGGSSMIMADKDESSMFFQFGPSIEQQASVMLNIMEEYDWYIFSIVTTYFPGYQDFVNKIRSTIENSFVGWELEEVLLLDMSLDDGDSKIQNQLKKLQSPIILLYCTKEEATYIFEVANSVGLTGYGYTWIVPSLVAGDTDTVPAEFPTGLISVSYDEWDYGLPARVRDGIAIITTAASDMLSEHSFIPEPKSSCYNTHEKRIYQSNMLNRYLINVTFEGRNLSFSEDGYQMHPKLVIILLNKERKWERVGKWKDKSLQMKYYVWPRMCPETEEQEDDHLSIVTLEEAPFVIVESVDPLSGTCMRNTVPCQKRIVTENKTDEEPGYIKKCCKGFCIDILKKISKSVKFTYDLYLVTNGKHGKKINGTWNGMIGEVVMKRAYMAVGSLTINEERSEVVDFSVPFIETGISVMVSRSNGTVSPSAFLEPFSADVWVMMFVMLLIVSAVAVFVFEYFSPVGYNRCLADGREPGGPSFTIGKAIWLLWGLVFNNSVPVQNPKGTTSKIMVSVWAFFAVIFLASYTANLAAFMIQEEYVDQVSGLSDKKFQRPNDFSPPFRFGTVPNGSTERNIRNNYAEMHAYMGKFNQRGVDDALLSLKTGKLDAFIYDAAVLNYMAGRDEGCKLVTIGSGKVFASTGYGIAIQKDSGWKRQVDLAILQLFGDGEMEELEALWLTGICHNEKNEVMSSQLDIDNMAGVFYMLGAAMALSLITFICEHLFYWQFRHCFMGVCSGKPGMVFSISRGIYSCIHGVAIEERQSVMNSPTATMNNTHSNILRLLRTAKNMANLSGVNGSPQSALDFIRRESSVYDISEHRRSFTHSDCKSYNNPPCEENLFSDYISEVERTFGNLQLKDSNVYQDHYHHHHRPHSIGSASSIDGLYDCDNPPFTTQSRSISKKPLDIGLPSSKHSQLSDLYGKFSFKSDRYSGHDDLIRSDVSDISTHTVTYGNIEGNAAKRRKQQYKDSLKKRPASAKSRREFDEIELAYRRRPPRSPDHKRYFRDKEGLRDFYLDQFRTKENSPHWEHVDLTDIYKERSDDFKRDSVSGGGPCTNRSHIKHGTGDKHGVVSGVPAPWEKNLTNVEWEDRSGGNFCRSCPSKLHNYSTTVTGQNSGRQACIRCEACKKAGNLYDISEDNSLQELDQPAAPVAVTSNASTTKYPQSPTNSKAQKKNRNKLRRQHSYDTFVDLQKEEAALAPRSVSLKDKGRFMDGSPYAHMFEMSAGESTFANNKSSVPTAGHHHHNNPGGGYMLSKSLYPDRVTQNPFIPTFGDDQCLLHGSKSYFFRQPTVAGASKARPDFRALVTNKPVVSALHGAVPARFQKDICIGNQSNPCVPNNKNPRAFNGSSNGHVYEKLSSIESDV
SMILES,IC50 [1] [µM],IC50 [2] [µM]
"Cc1ccccc1[C@]1(O)C[C@H]2CN(CC(O)c3cccc(C(F)(F)F)c3)C[C@H]2C1 (mixture of isomers) [Example 72, rac-2-{2-hydroxy-2-[3-(trifluoromethyl)phenyl]ethyl}-5-(2-methylphenyl)-octahydrocyclopenta[c] pyrrol-5-ol]",> 10,≥ 10
"Oc1ccc(C(O)CN2C[C@@H]3C[C@@](O)(Cc4c(F)cccc4F)C[C@@H]3C2)nc1 (mixture of isomers) [Example 240, rac-6-{2-[(3aR,5R,6aS)-5-[(2,6-difluorophenyl)methyl]-5-hydroxy-octahydrocyclopenta[c]pyrrol-2-yl]-1-hydroxyethyl}pyridin-3-ol]",–,0.0696
N#Cc1cccc(NC(=O)N2C[C@@H]3C[C@@](O)(c4ccc(F)cc4)C[C@@H]3C2)c1 [Example 40],> 10,–
"CC(C)(O)c1ccc(C(=O)CN2C[C@@H]3C[C@@](O)(c4ccccc4)C[C@@H]3C2)cc1 [Example 68, 2-(5-hydroxy-5-phenylhexahydrocyclo-penta[c]pyrrol-2(1H)-yl)-2-(4-(2-hydroxypropan-2-yl)phenyl)ethanone]",> 10,–
"Oc1ccc(C(O)CN2C[C@@H]3C[C@@](F)(Cc4ccccc4)C[C@@H]3C2)cc1 (mixture of isomers) [Example 313, rac-4-(2-((3aR,5r,6aS)-5-benzyl-5-fluoro-hexahydrocyclopen-ta[c]pyrrol-2(1H)-yl)-1-hydroxyethyl)phenol]",< 0.1,0.0269
Cc1ccccc1[C@]1(O)C[C@H]2CN(C(=O)Nc3cccc(Cl)c3)C[C@H]2C1 [Example 11],> 10,–
"Cc1ccccc1[C@]1(O)C[C@H]2CN(C(C)C(O)c3ccc(O)cc3)C[C@H]2C1 (mixture of isomers) [Example 95, rac-2-[1-hydroxy-1-(4-hydroxyphenyl)propan-2-yl]-5-(2-methylphenyl)-octahydrocyclopenta[c] pyrrol-5-ol]",> 10,≥ 10
COc1ccc(NC(=O)N2C[C@@H]3C[C@@](O)(c4ccccc4C)C[C@@H]3C2)cc1 [Example 8],> 10,≥ 10
"CC(O)(CN1CC2CC(O)(Cc3ccccc3)CC2C1)c1ccc(O)cc1 (racemic) [Example 280, rac-(3aR,5R,6aS)-5-benzyl-2-[2-hydroxy-2-(4-hydroxyphenyl)propyl]-octahydrocyclopenta[c] pyrrol-5-ol]",< 0.1,0.043
"COc1cccc(C(O)CN2C[C@@H]3C[C@@](O)(c4cccc(OC)c4)C[C@@H]3C2)c1 (mixture of isomers) [Example 77, rac-2-[2-hydroxy-2-(3-methoxyphenyl)ethyl]-5-(3-methoxyphenyl)-octahydrocyclopenta[c] pyrrol-5-ol]",> 10,≥ 10
Cc1ccc(NC(=O)N2C[C@@H]3C[C@@](O)(c4ccccc4)C[C@@H]3C2)c(C)c1 [Example 47],> 10,≥ 10
"Oc1ccc(C(O)CN2C[C@@H]3C[C@@](O)(Cc4cccs4)C[C@@H]3C2)cc1F (mixture of isomers) [Example 222, rac-2-(2-(3-fluoro-4-hydroxyphenyl)-2-hydroxyethyl)-5-(thiophen-2-ylmethyl)octahydrocyclo-penta[c]pyrrol-5-ol]",< 0.1,0.0193
"OC(CN1C[C@@H]2C[C@@](O)(Cc3ccccc3)C[C@@H]2C1)c1ccc(Cl)cc1Cl (mixture of isomers) [Example 287, rac-(3aR,5r,6aS)-5-benzyl-2-(2-(2,4-dichlorophenyl)-2-hydroxyethyl)octahydro-cyclopenta[c]pyrrol-5-ol]",> 10,≥ 10
"CC(C(O)c1ccc(O)cc1)N1C[C@@H]2C[C@@](O)(CCc3ccccc3)C[C@@H]2C1 (mixture of isomers) [Example 320, rac-2-(1-hydroxy-1-(4-hydroxyphenyl)propan-2-yl)-5-phenethyl-octahydrocyclo-panta[c]pyrrol-5-ol]",–,2.05
O=C(Nc1cccc(Cl)c1)N1C[C@@H]2C[C@@](O)(c3ccc(F)cc3)C[C@@H]2C1 [Example 39],> 10,≥ 10
"O=c1ccc(C(O)CN2C[C@@H]3C[C@@](O)(Cc4ccccc4)C[C@@H]3C2)n[nH]1 (mixture of isomers) [Example 158, rac-6-(2-((3aR,5r,6aS)-5-benzyl-5-hydroxyhexahydrocyclo-penta[c]pyrrol-2(1H)-yl)-1-hydroxyethyl)pyridazin-3(2H)-one]",> 10,≥ 10
"Oc1ccc(C(O)CN2C[C@H]3CN(Cc4ccccc4)C[C@H]3C2)nc1 (mixture of isomers) [Example 329, rac-6-(2-(5-benzylhexahydropyrrolo [3,4-c]pyrrol-2(1H)-yl)-1-hydroxyethyl) pyridin-3-ol]",–,0.38
"Oc1ccc(C(O)CN2C[C@@H]3C[C@@](O)(Cc4ccc(F)cc4)C[C@@H]3C2)cc1 (mixture of isomers) [Example 135, rac-(3aR,5r,6aS)-5-(4-fluorobenzyl)-2-(2-hydroxy-2-(4-hy-droxyphenyl)ethyl)octa-hydrocyclopenta[c]pyrrol-5-ol]",–,0.0271
"Cc1cc(C)cc(C[C@]2(O)C[C@H]3CN(CC(O)c4ccc(O)cc4)C[C@H]3C2)c1 (mixture of isomers) [Example 213, rac-(3aR,5R,6aS)-5-[(3,5-dimethylphenyl)methyl]-2-[2-hydroxy-2-(4-hydroxyphenyl)ethyl]-octahydrocyclopenta[c] pyrrol-5-ol]",–,0.566
"OC(CN1C[C@@H]2C[C@@](O)(c3ccc(F)cc3)C[C@@H]2C1)c1cccc(C(F)(F)F)c1 (mixture of isomers) [Example 75, rac-5-(4-fluorophenyl)-2-{2-hydroxy-2-[3-(trifluoromethyl)phenyl]ethyl}-octahydrocyclopenta[c] pyrrol-5-ol]",> 10,≥ 10
"OC(CN1C[C@@H]2C[C@@](O)(Cc3ccccc3)C[C@@H]2C1)c1cnc(OCc2ccccc2)cn1 (mixture of isomers) [Example 163, rac-(3aR,5r,6aS)-5-benzyl-2-(2-(5-(benzyloxy)pyrazin-2-yl)-2-hydroxyethyl)octahydro-cyclopenta[c]pyrrol-5-ol]",> 10,≥ 10
"Oc1ccc(C(O)CN2C[C@@H]3C[C@@](O)(Cc4ccccc4F)C[C@@H]3C2)nc1 (mixture of isomers) [Example 228, rac-5-(2-fluorobenzyl)-2-(2-hydroxy-2-(5-hydroxypyridin-2-yl)ethyl)octahydrocyclo-penta[c]pyrrol-5-olyl)ethanone]",< 0.1,0.0409
"Cc1cc(F)ccc1C[C@]1(O)C[C@H]2CN(CC(O)c3ccc(O)cn3)C[C@H]2C1 (mixture of isomers) [Example 243, rac-(3aR,5r,6aS)-5-(4-fluoro-2-methylbenzyl)-2-(2-hydroxy-2-(5-hydroxypyridin-2-yl)ethyl)octahydrocyclo-penta[c]pyrrol-5-ol]",–,0.0757
"CC(=O)Nc1ccc(C(O)CN2C[C@@H]3C[C@@](O)(Cc4ccccc4)C[C@@H]3C2)cn1 (mixture of isomers) [Example 283, rac-N-(5-(2-((3aR,5r,6aS)-5-benzyl-5-hydroxyhexahydrocyclo-penta[c]pyrrol-2(1H)-yl)-1-hydroxyethyl)pyridin-2-yl)acetamide]",> 10,≥ 10
"Oc1ccc(C(O)CN2C[C@H]3C[C@@H](Cc4ccccc4)C[C@H]3C2)cc1F (mixture of isomers) [Example 301, rac-4-{2-[(3aR,5S,6aS)-5-benzyl-octahydrocyclopenta[c]pyrrol-2-yl]-1-hydroxyethyl}-2-fluorophenol]",–,0.0122
